The test system of one series is Prostate PC3. As to the kind of experiment: MTT anticancer assay, prostate PC3 cells. The format is cell-based. The following applies: Homo sapiens, PC-3, 48 h, 1-30 µM, ± SD of three independent experiments. How it is done: (§1) The antiproliferative activity against four cancer cell lines, including prostate PC3, cervical HeLa, and triple-negative breast cancer (MCF-7 and MDA-MB231) was evaluated by MTT assay, while standard drug doxorubicin was used as a reference for comparison (Table 1).
(§2) Cytotoxicity against BJ human fibroblast cells and cytotoxicity against PC3, HeLa, MCF-7, and MDA-MB231 cancer cell lines were evaluated by following the procedure as described in the literature (Supplementary Materials). […]
(§3) The Biological Activity Assays Protocols
(§4) Cytotoxic activity of compounds was evaluated in 96-well flat-bottomed micro plates by using the standard MTT (3-[4, 5-dimethylthiazole-2-yl]-2, 5-diphenyl-tetrazolium bromide) colorimetric assay.
(§5) For this purpose, PC3 cells (Prostate Cancer) / BJ Human fibroblast cells / HeLa cells (Cervical Cancer) / MCF-7 and MDA-MB-231 breast cancer cell line were cultured in Dulbecco’s Modified Eagle Medium, supplemented with 5% of fetal bovine serum (FBS), 100 IU/ml of penicillin and 100 µg/ml of streptomycin in 75 cm2 flasks, and kept in 5% CO2 incubator at 37 °C. Exponentially growing cells were harvested, counted with haemocytometer and diluted with a particular medium. Cell culture with the concentration of 1x10^5 cells/ml was prepared and introduced (100 µL/well) into 96-well plates. After overnight incubation, medium was removed and 200 µL of fresh medium was added with different concentrations of compounds (1-30µM). After 48 hrs, 200 µL MTT (0.5 mg/ml) was added to each well and incubated further for 4 hrs. Subsequently, 100µL of DMSO was added to each well. The extent of MTT reduction to formazan within cells was calculated by measuring the absorbance at 570 nm, using a micro plate reader (Spectra Max plus, Molecular Devices, CA, USA). The cytotoxicity was recorded […]
(§6) (1 picture or pasted object on this page, not shown here) […]
(§7) as concentration causing 50% growth inhibition (IC50) for PC3 cells. The percent inhibition was calculated by using the following formula:
(§8) % inhibition = 100-((mean of O.D of test compound – mean of O.D of negative control)/ (mean of O.D of positive control – mean of O.D of negative control)*100).
(§9) The results (% inhibition) were processed by using Soft- Max Pro software (Molecular Device, USA).
(§10) Standard drug used in the MTT assay was doxorubicin. […]
(Tetrazolium dyes change colour on reduction, which living cells bring about.)

In another series the test system is Breast MCF-7. The experiment in a line: MTT anticancer assay, breast MCF-7 cells. The series is classed as cell-based. Particulars: Homo sapiens, MCF7, 48 h, 1-30 µM, ± SD of three independent experiments. Here is the method:
as §1, §2, §3, §4, §5, §6, §7, §8, §9, §10

The subject of the next series is Cervical HeLa. As to the kind of experiment: MTT anticancer assay, cervical HeLa cells. The format is cell-based. Particulars: 48 h, 1-30 µM, ± SD of three independent experiments; for IC50: Homo sapiens, HeLa. How it is done:
as §1, §2, §3, §4, §5, §6, §7, §8, §9, §10

A further series concerns Breast MDA-MB231. The experiment in a line: MTT anticancer assay, breast MDA-MB231 cells. The format is cell-based. The following applies: Homo sapiens, MDA-MB-231, 48 h, 1-30 µM, ± SD of three independent experiments. Here is the method:
as §1, §2, §3, §4, §5, §6, §7, §8, §9, §10

The test system of the next series is Human Fibroblast BJ. As to the kind of experiment: MTT cytotoxicity assay against BJ human fibroblast cells. The series is classed as cell-based. Particulars: 48 h, 1-30 µM, ± SD of three independent experiments. How it is done:
as §2, §3, §4, §5, §6, §7, §8, §9, §10

Where only a bound is given, the exact number is not on record here.

On to `Cc1ccc2c(c1)[C@]1(C(=O)N2)N2[C@H](C[C@@H]3CCCC[C@@H]32)[C@@H](c2ccc(C(F)(F)F)cc2)[C@@]12CCC/C(=C\c1ccc(C(F)(F)F)cc1)C2=O` [Compound 4n, (1. S,1′S,3′S,4a′S,8a′S,9a′R)-5″-Methyl-3-((E)-4-(trifluoromethyl)benzylidene)-1′-(4-(trifluorom-thyl)phenyl)-4a′,5′,6′,7′,8′,8a′,9′,9a′-octahydro-1′H-dispiro[cyclohexane-1,2′-pyrrolo[1,2-a]indole-3′,3″-indoline]-2,2″-dione], for which the melting point was 73 to 74 °C. Further, the half-maximal inhibitory concentration (IC50) with Prostate PC3 is over 30 µM. In addition, the IC50 in the series with Breast MCF-7 is over 30 µM. In the series on Cervical HeLa, the “IC50, Cervical HeLa” value is “inactive” and the IC50 is over 30 µM. Further, in the series on Breast MDA-MB231, the IC50 was over 30 µM. This compound also registered a half-maximal inhibitory concentration (IC50) in the series with Human Fibroblast BJ of over 30 µM.
`COc1ccc2c(c1)[C@]1(C(=O)N2)N2[C@H](C[C@@H]3CCCC[C@@H]32)[C@@H](c2cccc(F)c2)[C@@]12CCC/C(=C\c1cccc(F)c1)C2=O` [Compound 4j, (1. S,1′S,3′S,4a′S,8a′S,9a′R)-3-((E)-3-Fluorobenzylidene)-1′-(3-fluorophenyl)-5″-methoxy-4a′,5′,6′,7′,8′,8a′,9′,9a′-octahydro-1′H-dispiro[cyclohexane-1,2′-pyrrolo[1,2-a]indole-3′,3″-indoline]-2,2″-dione] registered a melting point of 92 to 93 °C. The compound also showed a half-maximal inhibitory concentration (IC50) with Prostate PC3 of over 30 µM. The compound further showed an IC50 with Breast MCF-7 of over 30 µM. Moreover, the half-inhibitory concentration (IC50) in the series with Cervical HeLa was determined as 11.9 ± 0.04 µM. In addition, the IC50 in the series on Breast MDA-MB231 was found to be 10.5 ± 0.71 µM. In the series on Human Fibroblast BJ, this compound gave an IC50 of over 30 µM.
`O=C1/C(=C/c2ccccc2)CCC[C@@]12[C@H](c1ccccc1)[C@H]1C[C@@H]3CCCC[C@@H]3N1[C@]21C(=O)Nc2cc(Cl)ccc21` [Compound 4b, (1. S,1′S,3′S,4a′S,8a′S,9a′R)-3-((E)-Benzylidene)-6″-chloro-1′-phenyl-4a′,5′,6′,7′,8′,8a′,9′,9a′-octahydro-1′H-dispiro[cyclohexane-1,2′-pyrrolo[1,2-a]indole-3′,3″-indoline]-2,2″-dione]: the half-inhibitory concentration (IC50) is 3.7 ± 1 µM in the series on Prostate PC3; 27.7 ± 0.59 µM with Breast MCF-7; over 30 µM in the series with Cervical HeLa; 24.08 ± 0.02 µM with Breast MDA-MB231; over 30 µM with Human Fibroblast BJ.
`O=C1/C(=C/c2cccc(F)c2)CCC[C@@]12[C@H](c1cccc(F)c1)[C@H]1C[C@@H]3CCCC[C@@H]3N1[C@]21C(=O)Nc2ccc([N+](=O)[O-])cc21` [Compound 4i, (1. S,1′S,3′S,4a′S,8a′S,9a′R)-3-((E)-3-Fluorobenzylidene)-1′-(3-fluorophenyl)-5″-nitro-4a′,5′,6′,7′,8′,8a′,9′,9a′-octahydro-1′H-dispiro[cyclohexane-1,2′-pyrrolo[1,2-a]indole-3′,3″-indoline]-2,2″-dione] registered a melting point of 107 to 108 °C. Moreover, the half-inhibitory concentration (IC50) with Prostate PC3 is over 30 µM. In addition, in the series with Breast MCF-7, the IC50 is over 30 µM. The compound further displayed an IC50 with Cervical HeLa of over 30 µM. In the series on Breast MDA-MB231, this compound had an IC50 of 7.63 ± 0.08 µM. The IC50 in the series on Human Fibroblast BJ was over 30 µM.
Compound `O=C1/C(=C/c2ccccc2)CCC[C@@]12[C@H](c1ccccc1)[C@H]1C[C@@H]3CCCC[C@@H]3N1[C@]21C(=O)Nc2ccc([N+](=O)[O-])cc21` [Compound 4d, (1. S,1′S,3′S,4a′S,8a′S,9a′R)-3-((E)-Benzylidene)-5″-nitro-1′-phenyl-4a′,5′,6′,7′,8′,8a′,9′,9a′-octahydro-1′H-dispiro[cyclohexane-1,2′-pyrrolo[1,2-a]indole-3′,3″-indoline]-2,2″-dione] returned a melting point of 111 to 122 °C. In the series on Prostate PC3, this compound displayed an IC50 of 29.8 ± 0.1 µM. Also, the IC50 in the series on Breast MCF-7 was over 30 µM. Moreover, in the series on Cervical HeLa, the 50% inhibitory concentration (IC50) is over 30 µM. In the series on Breast MDA-MB231, the 50% inhibitory concentration (IC50) was over 30 µM. The compound also came in with an IC50 with Human Fibroblast BJ of over 30 µM.
`O=C1/C(=C/c2cccc(Br)c2)CCC[C@@]12[C@H](c1cccc(Br)c1)[C@H]1C[C@@H]3CCCC[C@@H]3N1[C@]21C(=O)Nc2cc(Cl)ccc21` [Compound 4k, (1. S,1′S,3′S,4a′S,8a′S,9a′R)-3-((E)-3-Bromobenzylidene)-1′-(3-bromophenyl)-6″-chloro-4a′,5′,6′,7′,8′,8a′,9′,9a′-octahydro-1′H-dispiro[cyclohexane-1,2′-pyrrolo[1,2-a]indole-3′,3″-indoline]-2,2″-dione] showed a melting point of 115 to 116 °C. Further, in the series with Prostate PC3, the 50% inhibitory concentration (IC50) was over 30 µM. The same compound had a concentration for half-maximal inhibition (IC50) with Breast MCF-7 of over 30 µM. Also, in the series on Cervical HeLa, the “IC50, Cervical HeLa” value is “inactive” and the half-inhibitory concentration (IC50) was over 30 µM. The IC50 in the series with Breast MDA-MB231 was over 30 µM. In addition, the IC50 in the series with Human Fibroblast BJ was over 30 µM.
In turn, `O=C1/C(=C/c2ccc(C(F)(F)F)cc2)CCC[C@@]12[C@H](c1ccc(C(F)(F)F)cc1)[C@H]1C[C@@H]3CCCC[C@@H]3N1[C@]21C(=O)Nc2cc(Cl)ccc21` [Compound 4m, (1. S,1′S,3′S,4a′S,8a′S,9a′R)-6″-Chloro-3-((E)-4-(trifluoromethyl)benzylidene)-1′-(4-(trifluoromethyl)phenyl)-4a′,5′,6′,7′,8′,8a′,9′,9a′-octahydro-1′H-dispiro[cyclohexane-1,2′-pyrrolo[1,2-a]indole-3′,3″-indoline]-2,2″-dione] had a melting point of 78 to 79 °C. Further, the IC50 with Prostate PC3 was over 30 µM. This compound also yielded an IC50 in the series on Breast MCF-7 of over 30 µM. Moreover, in the series on Cervical HeLa, half-maximal inhibition (IC50) required 24.6 ± 0.4 µM. The same compound registered a half-inhibitory concentration (IC50) with Breast MDA-MB231 of over 30 µM. In the series with Human Fibroblast BJ, the IC50 is over 30 µM.
`O=C1/C(=C/c2ccccc2)CCC[C@@]12[C@H](c1ccccc1)[C@H]1C[C@@H]3CCCC[C@@H]3N1[C@]21C(=O)Nc2ccc(F)cc21` [Compound 4c, (1. S,1′S,3′S,4a′S,8a′S,9a′R)-3-((E)-Benzylidene)-5″-fluoro-1′-phenyl-4a′,5′,6′,7′,8′,8a′,9′,9a′-octahydro-1′H-dispiro[cyclohexane-1,2′-pyrrolo[1,2-a]indole-3′,3″-indoline]-2,2″-dione] showed a melting point of 70 to 71 °C. For the same compound, the concentration for half-maximal inhibition (IC50) in the series on Prostate PC3 stood at 17.9 ± 0.2 µM. Half-maximal inhibition in the series on Breast MCF-7 (IC50) required 27.8 ± 1.02 µM. In addition, the concentration for half-maximal inhibition (IC50) in the series with Cervical HeLa is over 30 µM. Also, the IC50 in the series on Breast MDA-MB231 amounted to 20.6 ± 2.16 µM. This compound showed an IC50 in the series on Human Fibroblast BJ of over 30 µM.
Consider `O=C1/C(=C/c2cccc(F)c2)CCC[C@@]12[C@H](c1cccc(F)c1)[C@H]1C[C@@H]3CCCC[C@@H]3N1[C@]21C(=O)Nc2cc(Cl)ccc21` [Compound 4h, (1. S,1′S,3′S,4a′S,8a′S,9a′R)-6″-Chloro-3-((E)-3-fluorobenzylidene)-1′-(3-fluorophenyl)-4a′,5′,6′,7′,8′,8a′,9′,9a′-octahydro-1′H-dispiro[cyclohexane-1,2′-pyrrolo[1,2-a]indole-3′,3″-indoline]-2,2″-dione], for which the melting point lay in the range of 83 to 84 °C. In the series on Prostate PC3, this compound displayed a half-maximal inhibitory concentration (IC50) of over 30 µM. Moreover, the IC50 in the series with Breast MCF-7 was over 30 µM. The concentration for half-maximal inhibition (IC50) in the series with Cervical HeLa was over 30 µM. The same compound displayed an IC50 in the series on Breast MDA-MB231 of 14.43 ± 0.09 µM. The same compound came in with an IC50 with Human Fibroblast BJ of over 30 µM.
Regarding `COc1ccc2c(c1)[C@]1(C(=O)N2)N2[C@H](C[C@@H]3CCCC[C@@H]32)[C@@H](c2ccccc2)[C@@]12CCC/C(=C\c1ccccc1)C2=O` [Compound 4e, (1. S,1′S,3′S,4a′S,8a′S,9a′R)-3-((E)-Benzylidene)-5″-methoxy-1′-phenyl-4a′,5′,6′,7′,8′,8a′,9′,9a′-octahydro-1′H-dispiro[cyclohexane-1,2′-pyrrolo[1,2-a]indole-3′,3″-indoline]-2,2″-dione], the melting point is 111 to 122 °C. In addition, in the series on Prostate PC3, the IC50 was 19.6 ± 1.2 µM. In the series on Breast MCF-7, this compound registered an IC50 of over 30 µM. This compound came in with a half-inhibitory concentration (IC50) in the series with Cervical HeLa of 26.5 ± 0.04 µM. For the same compound, the half-inhibitory concentration (IC50) in the series on Breast MDA-MB231 is over 30 µM. Also, the IC50 in the series on Human Fibroblast BJ is over 30 µM.

As usually defined, the IC50 is the concentration needed to halve the response being measured. A word on the melting point: it is the temperature of the solid-liquid transition.
